Source: PMC11378297, “Discovery and Profiling of New Multimodal Phenylglycinamide Derivatives as Potent Antiseizure and Antinociceptive Drug Candidates” (ACS Chemical Neuroscience, 2024)
Where two headings read alike, the source gives them in different places.

Experiments:
[1] = tested on: maximal electroshock (MES) seizures, mice; assay: maximal electroshock (MES) seizure test; format: in vivo; conditions: Mus musculus, ip; 100 mg/kg i.p., 0.5 h, mice; read-out: MES: number of mice protected/number of mice tested (converted)
[2] = tested on: 6 Hz (32 mA) seizures, mice; assay: 6 Hz (32 mA) psychomotor seizure test; format: in vivo; conditions: Mus musculus, ip, 100 mg/kg i.p., 0.5 h;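 note: compounds given as one i.p. dose suspended in 1% aqueous Tween 80, with the 6 Hz (32 mA) model considered to reflect focal epilepsy in humans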
TRPV1 (VR1) (h) = target: T1, TRPV1 (VR1) (h) (Homo sapiens, UniProt Q8NER1); assay: TRPV1 (VR1) (h) (antagonist effect); format: cell-based; conditions: 100 µM, human recombinant CHO cells; read-out: % Inhibition of control agonist response
T1 construct: host or cells: CHO cells
Description: Further in vitro functional studies confirmed TRPV1 antagonist activity for (R)-31–(R)-33.
Using previously described testing methodologies, binding/functional tests were conducted on a commercial basis at Eurofins Laboratories (Poitiers, France) and Eurofins Panlabs Discovery Services Taiwan, Ltd. (New Taipei City, Taiwan); see Table S9 for more information.
Table S9. Radioligand binding and functional assays. […]
TRPV1 (VR1) (h) (antagonist effect) […]
Assays were performed commercially in Eurofins Laboratories (Poitiers, France) or Eurofins Panlabs Discovery Services
Taiwan, Ltd. (New Taipei City, Taiwan).

[3] = PAMPA (Precoated PAMPA Plate System Gentest) passive permeability; format: in vitro ADME; conditions: passive blood–brain barrier permeability model
body temperature, mice = assay: capsaicin-induced hypothermia test / rectal temperature; format: in vivo, mouse
Description: In this study, we used the capsaicin-induced hypothermia model in mice to evaluate the effect of eutomers (R)-31, (R)-32, and (R)-33 on body temperature and to provide more data related to their on-target activity (i.e., antagonism of TRPV1) (Figure S5A–D). Capsaicin given i.p. at a dose of 5 mg/kg produced a marked decrease in rectal temperature at 15 min post injection (p < 0.0001). The temperature returned to normal values within 30–60 min after capsaicin injection. […] None of the tested compounds reversed the capsaicin-induced hypothermia.
The changes in body temperature in the capsaicin-induced hypothermia model were evaluated as described previously. Eutomers (R)-31, (R)-32, and (R)-33 were suspended in a 1% Tween 80 and administered i.p. 15 min before injection of capsaicin (5 mg/kg, i.p.). The corresponding vehicles (1% DMSO or 1% Tween 80) were given to the control animals. Using an electronic thermometer (ThermoWorks, Alpine, Utah, USA), changes in the mouse’s rectal temperature were recorded by inserting the rectal probe approximately 2 cm into the mouse’s rectum. After −15, 0, 15, 30, 60, 90, 120, and 180 min, the measurements were collected. Subsequently, the variations in rectal temperature between the baseline ([…] for the groups receiving compounds and BCTC in conjunction with the vehicle, or […] for the groups receiving the vehicle, compounds, and BCTC in combination with the capsaicin) and the corresponding time point ΔT (°C) were computed and examined.
Figure S5. Acute effects of BCTC (A), (R)-31 (B), (R)-32 (C), and (R)-33 (D) on rectal temperature in the capsaicin-induced test in mice. Capsaicin (CPS) or vehicle (1% DMSO) were injected i.p. at 0 min, as indicated by the arrows.
BCTC, (R)-31, (R)-32, and (R)-33 were suspended in 1% Tween 80 and administered i.p. 15 min before CPS or vehicle injection. The temperature was measured at -15, 0, 15, 30, 60, 90, 120, and 180 min. Since body temperature returned to control values 60 min after CPS injection, subsequent measurements are not shown.
Data are presented as the mean differences (ΔT) in rectal temperature from 0 to -15 min (time point 0 min), from 15 to 0 min (time point 15 min), from 30 to 0 min (time point 30 min), and from 60 to 0 min (time point 60 min); n = 6–8 animals/group. Statistical significance was evaluated using one-way ANOVA with Tukey’s post hoc test: […]
(1 picture or pasted object on this page, not shown here)

[4] = four mice, read-out: protection in the 6 Hz (32 mA) test
[5] = mice, read-out: 6 Hz (32 mA): number of mice protected/number of mice tested (converted)

T1 sequence (Q8NER1 whole entry): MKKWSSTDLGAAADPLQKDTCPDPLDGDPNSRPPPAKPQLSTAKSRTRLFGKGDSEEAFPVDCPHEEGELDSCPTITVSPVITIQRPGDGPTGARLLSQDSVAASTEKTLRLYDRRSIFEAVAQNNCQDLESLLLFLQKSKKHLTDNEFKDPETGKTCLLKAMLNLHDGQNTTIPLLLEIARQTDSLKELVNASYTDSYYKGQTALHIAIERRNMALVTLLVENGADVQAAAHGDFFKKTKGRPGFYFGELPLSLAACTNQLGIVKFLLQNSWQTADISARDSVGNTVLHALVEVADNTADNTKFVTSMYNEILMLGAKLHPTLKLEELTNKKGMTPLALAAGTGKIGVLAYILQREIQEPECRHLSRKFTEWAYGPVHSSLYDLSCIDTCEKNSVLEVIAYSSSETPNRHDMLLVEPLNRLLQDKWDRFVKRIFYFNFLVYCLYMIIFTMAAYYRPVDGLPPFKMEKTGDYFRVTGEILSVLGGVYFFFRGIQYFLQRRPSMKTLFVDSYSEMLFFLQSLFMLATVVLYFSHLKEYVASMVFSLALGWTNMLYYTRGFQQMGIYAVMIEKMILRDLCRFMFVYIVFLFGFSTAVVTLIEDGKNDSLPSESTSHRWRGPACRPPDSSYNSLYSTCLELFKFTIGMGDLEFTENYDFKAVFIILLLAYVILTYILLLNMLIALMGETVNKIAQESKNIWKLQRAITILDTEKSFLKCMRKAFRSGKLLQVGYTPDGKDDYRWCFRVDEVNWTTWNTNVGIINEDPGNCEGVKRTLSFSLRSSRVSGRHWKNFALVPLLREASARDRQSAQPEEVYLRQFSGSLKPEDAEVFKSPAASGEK

Compound	inhibition at 100 µM (TRPV1 (VR1) (h)) [%]	melting point [°C]	responders at 100 mg/kg [1] [%]	responders at 100 mg/kg [2, 4] [%]	responders at 100 mg/kg [2, 5] [%]	permeability coefficient (Pe) [3]	effect on capsaicin-induced hypothermia (body temperature, mice; 20 mg/kg with capsaicin 5 mg/kg i.p., p < 0.0001 at 15 and 30 min)	effect on body temperature, administered alone (body temperature, mice; 20 mg/kg, 15 min after injection, p < 0.05)
CC(=O)N[C@H](C(=O)N1CCN(c2cccc(SC(F)(F)F)c2)CC1)c1ccccc1 [(S)-33, (S)-N-(2-Oxo-1-phenyl-2-(4-(3-((trifluoromethyl)thio)phenyl)piperazin-1-yl)ethyl)acetamide]	–	–	25	75	75	–	–	–
CC(=O)N[C@H](C(=O)N1CCN(c2cccc(OC(F)(F)F)c2)CC1)c1ccccc1 [(S)-32, (S)-N-(2-Oxo-1-phenyl-2-(4-(3-(trifluoromethoxy)phenyl)piperazin-1-yl)ethyl)acetamide]	–	–	25	75	75	–	–	–
Cn1c(=O)c2c(ncn2C)n(C)c1=O [caffeine, reference compound]	–	–	–	–	–	3.46 × 10^–6 cm/s	–	–
O=C(NC(C(=O)N1CCN(c2cccc(C(F)(F)F)c2)CC1)c1ccccc1)c1ccccc1Cl (centres unmarked) [Compound 4, 2-Chloro-N-(2-oxo-1-phenyl-2-(4-(3-(trifluoromethyl)phenyl)piperazin-1-yl)ethyl) Benzamide]	14.4	134.8 to 135.9	0	–	0	–	–	–
CC(=O)N[C@H](C(=O)N1CCN(c2cccc(C(F)(F)F)c2)CC1)c1ccccc1 [(S)-31, (S)-N-(2-Oxo-1-phenyl-2-(4-(3-(trifluoromethyl)phenyl)piperazin-1-yl)ethyl)acetamide]	–	109.8 to 110.6	25	50	50	–	–	–
O=C(NC(C(=O)N1CCN(c2cccc(C(F)(F)F)c2)CC1)c1ccccc1)c1ccccc1 (centres unmarked) [Compound 3, N-(2-Oxo-1-phenyl-2-(4-(3-(trifluoromethyl)phenyl)piperazin-1-yl)ethyl)benzamide]	11.4	140.9 to 141.2	0	50	50	–	–	–
CC(C)(C)c1ccc(NC(=O)N2CCN(c3ncccc3Cl)CC2)cc1 [BCTC, reference compound]	–	–	–	–	–	–	alleviated the capsaicin-induced hypothermia	caused a significant increase in body temperature
O=C(NC(C(=O)N1CCN(c2cccc(C(F)(F)F)c2)CC1)c1ccccc1)c1cccc(Cl)c1 (centres unmarked) [Compound 5, 3-Chloro-N-(2-oxo-1-phenyl-2-(4-(3-(trifluoromethyl)phenyl)piperazin-1-yl)ethyl) Benzamide]	3.8	151.7 to 152.4	0	50	50	–	–	–

Second part, led by results:

inhibition at 100 µM (TRPV1 (VR1) (h)) [%]	melting point [°C]	Compound	responders at 100 mg/kg [1] [%]	responders at 100 mg/kg [2, 4] [%]	responders at 100 mg/kg [2, 5] [%]	permeability coefficient (Pe) [3]	effect on capsaicin-induced hypothermia (body temperature, mice; 20 mg/kg with capsaicin 5 mg/kg i.p., p < 0.0001 at 15 and 30 min)	effect on body temperature, administered alone (body temperature, mice; 20 mg/kg, 15 min after injection, p < 0.05)
-2.7	173.1 to 174.2	CC(=O)NC(C(=O)NC1CCN(c2cccc(OC(F)(F)F)c2)C1)c1ccccc1 (centres unmarked) [Compound 23, 2-Acetamido-2-phenyl-N-(1-(3-(trifluoromethoxy)phenyl)pyrrolidin-3-yl)acetamide]	0	50	50	–	–	–
6.2	103.4 to 104.2	O=C(NC(C(=O)N1CCN(c2cccc(C(F)(F)F)c2)CC1)c1ccccc1)c1ccc(C(F)(F)F)cc1 (centres unmarked) [Compound 9, N-(2-Oxo-1-phenyl-2-(4-(3-(trifluoromethyl)phenyl)piperazin-1-yl)ethyl)-4-(trifluoromethyl) Benzamide]	0	–	0	–	–	–
6.8	165.2 to 166.7	O=C(NC(C(=O)N1CCN(c2cccc(C(F)(F)F)c2)CC1)c1ccccc1)c1ccc(Cl)cc1 (centres unmarked) [Compound 6, 4-Chloro-N-(2-oxo-1-phenyl-2-(4-(3-(trifluoromethyl)phenyl)piperazin-1-yl)ethyl) Benzamide]	0	25	25	–	–	–
1.3	168.8 to 169.7	CC(=O)NC(C(=O)NC1CCN(c2cccc(SC(F)(F)F)c2)C1)c1ccccc1 (centres unmarked) [Compound 24, 2-Acetamido-2-phenyl-N-(1-(3-((trifluoromethyl)thio)phenyl)pyrrolidin-3-yl)acetamide]	0	25	25	–	–	–
-4.2	101.2 to 102.4	O=C(NC(C(=O)N1CCN(c2cccc(C(F)(F)F)c2)CC1)c1ccccc1)c1cc(C(F)(F)F)ccn1 (centres unmarked) [Compound 11, N-(2-Oxo-1-phenyl-2-(4-(3-(trifluoromethyl)phenyl)piperazin-1-yl)ethyl)-4-(trifluoromethyl)picolinamide]	0	–	50	–	–	–
-2.6	165.2 to 166.7	O=C(NC(C(=O)N1CCN(c2cccc(C(F)(F)F)c2)CC1)c1ccccc1)c1ccccc1C(F)(F)F (centres unmarked) [Compound 7, N-(2-Oxo-1-phenyl-2-(4-(3-(trifluoromethyl)phenyl)piperazin-1-yl)ethyl)-2 (trifluoromethyl)benzamide]	0	–	0	–	–	–
-1.2	146.5 to 147.2	O=C(NC(C(=O)N1CCN(c2cccc(C(F)(F)F)c2)CC1)c1ccccc1)c1ccc(C(F)(F)F)cn1 (centres unmarked) [Compound 12, N-(2-Oxo-1-phenyl-2-(4-(3-(trifluoromethyl)phenyl)piperazin-1-yl)ethyl)-5-(trifluoromethyl)picolinamide]	0	–	50	–	–	–
-6.1	143.2 to 144.1	O=C(NC(C(=O)N1CCN(c2cccc(C(F)(F)F)c2)CC1)c1ccccc1)c1cccc(C(F)(F)F)c1 (centres unmarked) [Compound 8, N-(2-Oxo-1-phenyl-2-(4-(3-(trifluoromethyl)phenyl)piperazin-1-yl)ethyl)-3-(trifluoromethyl)benzamide]	0	–	0	–	–	–
-8.4	203.7 to 204.4	CC(=O)NC(C(=O)NC1CCN(c2cccc(C(F)(F)F)c2)C1)c1ccccc1 (centres unmarked) [Compound 22, 2-Acetamido-2-phenyl-N-(1-(3-(trifluoromethyl)phenyl)pyrrolidin-3-yl)acetamide]	0	50	50	–	–	–
4.2	189.7 to 190.5	CC(=O)NC(C(=O)NC1CCN(c2ccccc2)C1)c1ccccc1 (centres unmarked) [Compound 21, 2-Acetamido-2-phenyl-N-(1-phenylpyrrolidin-3-yl)acetamide]	0	–	0	–	–	–
-3.5	–	O=C(NC(C(=O)N1CCN(c2cccc(C(F)(F)F)c2)CC1)c1ccccc1)c1ncccc1C(F)(F)F (centres unmarked) [Compound 10, N-(2-Oxo-1-phenyl-2-(4-(3-(trifluoromethyl)phenyl)piperazin-1-yl)ethyl)-3-(trifluoromethyl)picolinamide]	0	–	50	–	–	–
